We go through one compound from article PMC6440935, “Characterization and phase I study of CLR457, an orally bioavailable pan-class I PI3-kinase inhibitor” (Investigational New Drugs, 2018).

This assay has as its target PIK3CA H1047R (kinase domain mutation) (Homo sapiens, UniProt P42336, H1047R). Description: In vitro profiling, PIK3CA mutant isoform H1047R. The assay is classed as biochemical. The conditions noted are these: data not shown.

Sequence of PIK3CA H1047R (kinase domain mutation) (P42336 21-1068 H1047R limits assumed): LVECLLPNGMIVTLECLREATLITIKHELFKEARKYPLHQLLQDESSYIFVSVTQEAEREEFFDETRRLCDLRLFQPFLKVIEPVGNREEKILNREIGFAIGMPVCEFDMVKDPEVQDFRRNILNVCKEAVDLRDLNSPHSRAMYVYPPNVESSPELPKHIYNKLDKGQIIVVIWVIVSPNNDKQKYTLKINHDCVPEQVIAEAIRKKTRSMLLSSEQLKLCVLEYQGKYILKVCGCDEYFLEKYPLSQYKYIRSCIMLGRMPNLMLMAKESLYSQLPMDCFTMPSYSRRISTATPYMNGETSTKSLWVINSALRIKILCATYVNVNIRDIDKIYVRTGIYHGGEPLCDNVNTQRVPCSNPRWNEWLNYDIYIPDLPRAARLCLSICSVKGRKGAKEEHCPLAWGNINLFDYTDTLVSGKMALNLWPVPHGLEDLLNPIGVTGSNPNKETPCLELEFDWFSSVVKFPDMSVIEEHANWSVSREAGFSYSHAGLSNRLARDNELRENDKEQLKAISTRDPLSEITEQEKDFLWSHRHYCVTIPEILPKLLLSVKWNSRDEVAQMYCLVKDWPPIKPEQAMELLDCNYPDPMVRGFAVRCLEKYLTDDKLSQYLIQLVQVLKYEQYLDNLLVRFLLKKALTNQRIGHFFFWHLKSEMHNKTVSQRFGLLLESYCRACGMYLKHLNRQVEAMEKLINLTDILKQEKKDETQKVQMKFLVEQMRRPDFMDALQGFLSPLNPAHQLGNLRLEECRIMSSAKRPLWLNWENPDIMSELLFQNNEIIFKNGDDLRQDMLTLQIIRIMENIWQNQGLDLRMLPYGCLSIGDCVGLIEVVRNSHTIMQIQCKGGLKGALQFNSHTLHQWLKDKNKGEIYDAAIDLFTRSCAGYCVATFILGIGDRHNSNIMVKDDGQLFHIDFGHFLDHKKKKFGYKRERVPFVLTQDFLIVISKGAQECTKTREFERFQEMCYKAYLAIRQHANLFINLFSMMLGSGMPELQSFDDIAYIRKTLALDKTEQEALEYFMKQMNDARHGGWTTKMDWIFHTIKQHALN
Sequence of PIK3CA H1047R (kinase domain mutation) (P27986 461-568 partner limits assumed): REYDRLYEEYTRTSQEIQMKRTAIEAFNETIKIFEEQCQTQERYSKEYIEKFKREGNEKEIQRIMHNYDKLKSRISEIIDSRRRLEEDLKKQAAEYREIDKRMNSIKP

Take `C[C@H]1OC(=O)N(c2cc(-c3cnc(N)nc3C(F)(F)F)nc(N3CCOCC3)n2)[C@H]1CO` [CLR457]: the “Inhibition of PIK3CA mutant isoform H1047R” value is “inhibited”.
